Assay results as given in patent US20110009379A1, “INDOLINONE COMPOUND” (ASTELLAS PHARMA INC., priority 2008, published 2011).

Experiments:
[1] = tested on: delay of discharging time induced by loperamide in mice; experiment: Loperamide induced constipation model (glass bead discharging time); type: in vivo; settings: Mus musculus; mice (Slc:ddY, male), 0.3 mg/kg loperamide subcutaneously, compound orally; read-out: ED50 (amount which suppresses 50% of the delay of discharging time induced by loperamide)
Protocol: It has been known that loperamide as a μ opioid receptor agonist causes convulsive contraction in intestinal tracts. Thus, a delay in the intestinal transport ability due to loperamide is thought as a constipation IBS model.
Mice (Slc:ddY, five-week old, male) fasted from the previous evening of the experiment. On the day of the experiment, the mice were acclimatized to cages for measurement for 1 hour or more, and 0.3 mg/kg of loperamide was administered subcutaneously. After 30 minutes, a compound to be tested was administered orally, ether anesthesia was applied to the mice immediately thereafter, glass beads having diameter of 3 mm were inserted to 2 cm from anus. The mice were returned to the cages for measurement, and the time from waking to discharging of the glass beads was measured. Furthermore, the compound to be tested was dissolved into 10% DMSO, 10% cremophor, and 80% distillated water.
As a result, it has been recognized that there was a delay in the beads discharging time of the loperamide administration group (vehicle group) in comparison with the loperamide non-administration group (control group).
ED50 values (amount of the compound to be tested which suppresses 50% of the delay of discharging time induced by loperamide) of some of the compounds of the formula (I) are shown in Table 3. In this connection, comparative compound 1 is the same compound as comparative compound 1 in Test Example 4.

gastric emptying of rats = experiment: Activity to gastric emptying of TRPA1 agonist (phenol red, rats); type: in vivo; settings: Rattus norvegicus; male wistar rats, oral administration, versus control animals; read-out: ED50 (amount which suppresses 50% of gastric emptying)
Description: When EC cell is stimulated by content of a gastrointestinal tract, 5-HT is secreted. The secreted 5-HT promotes the secretion or motility through a 5-HT receptor present in intestinal nerve plexus or gastrointestinal smooth muscle. The secreted 5-HT is instantly taken into a cell by its specific transporter, and is metabolized by […]. Thus, while it is considerably difficult to directly measure the secreted 5-HT concentration, it has been known that gastric emptying is delayed as a physiological activity through 5-HT in rodents. In order to verify in vivo activity through 5-HT of the compound to be tested, activity to gastric emptying of rats by various TRPA1 agonists was studied.
In the experiment, male wistar rats (body weight 290 to 360 g) were used. The animals were purchased from Japan SLC (Shizuoka). The animals were allowed to drink water freely under a constitutive environment.
5 minutes after the medicine was orally administered, 0.05% phenol red solution (1.5 mL) was orally administered. After 15 minutes, rats were put painlessly to death by cervical vertebral dislocation, their stomachs were exenterated, and phenol red was eluted with 0.1M aqueous NaOH solution (5 mL) from the exenterated stomachs. 20% aqueous trichloroacetic acid solution (0.1 mL) was added to the NaOH solution (0.5 mL), followed by stirring and centrifugation at 15,000 rpm, at 4° C., for 10 minutes. 0.5M aqueous NaOH solution (0.2 mL) was added to the supernatant (0.05 mL), followed by stirring, and absorbance at 560 nm was measured using an absorption spectrometer (spectrometer spectramax M2; Molecular Devices, CA, USA).
A gastric emptying was calculated by the following calculating formula.
Gastric emptying (%)=100−(A/B)×100
A: amount of phenol red remaining in stomach
B: amount of phenol red remaining in stomach just after administering phenol red
ED50 values (amount of the compound to be tested which suppresses 50% of gastric emptying, with respect to the control animals without administering the compound to be tested) of some of the compounds of the formula (I) are shown in Table 2. In this connection, comparative compound 1 and comparative compound 2 are (3E)-1-methyl-3-(2-oxopropyridene)-1,3-dihydro-2H-indol-2-one, and (3E)-3-(2-oxopropyridene)-1-prop-2-in-1-yl-1,3-dihydro-2H-indol-2-one described in Non Patent Document 4 above, and has the following chemical structures, respectively.

melting point: 151 to 153 °C
Compound: O=C(O)/C=C1/C(=O)N(CC2CCCC2)c2c(F)cccc21 [Example 28, (2E)-[1-(cyclopentylmethyl)-7-fluoro-2-oxo-1,2-dihydro-3H-indol-3-ylidene]acetic acid]
ED50 [1]: 0.1 mg/kg | ED50 (gastric emptying of rats): 0.44 mg/kg
